Experimental data reported in publication PMC5467912, “Asymmetric regulation of quorum-sensing receptors drives autoinducer-specific gene expression programs in Vibrio cholerae” (PLoS Genetics, 2017).
Values joined by “and” are separate entries in the source; they are usually repeats but may differ in a detail not shown here. Equal entries are not always repeated. Where two headings read alike, the source gives them in different places.

Assays:
[1] = system: QS-controlled luxCDABE operon; type: cell-based; conditions: for Light production: LuxS-CqsA- +CAI-1 5 μM; for RLU: Strain AH371
CqsS C170Y = test: CqsS-dependent repression of qrr4-gfp, CqsS C170Y (Fig 7C); type: cell-based, Vibrio cholerae; conditions: Treatment 1uM; CqsS mutant C170Y
CqsS F162A = conditions: cited from earlier work
CqsS = molecular target: T1, CqsS (Vibrio cholerae serotype O1, UniProt Q9KM66); test: cell-based; conditions: for Light production: strain WN1102; for RLU: Strain WN1102
T1 construct: endogenous in cells; host or cells: V. cholerae WN1102 (ΔcqsA ΔluxQ/pBB1), derived from C6706str2

## CCCCCCCCCC(=O)[C@@H](O)CC [CAI-1, (S)-3-hydroxytridecan-4-one]
[1]; OD600 0.0198
  Light production: 6464646 RLU
[1]; OD600 0.0375
  Light production: 5626666 RLU
[1]; OD600 0.256
  Light production: 957031 RLU
[1]; OD600 0.663
  Light production: 472096 RLU
[1]; OD600 0.982
  Light production: 378819 RLU
[1]; OD600 1.101
  Light production: 133515000 RLU
[1]; agonist 0.0476837 nM
  RLU: 5.19E+03 RLU and 2.61E+03 RLU
[1]; agonist 0.762939 nM
  RLU: 2.58E+03 RLU and 5.16E+03 RLU and 2.67E+03 RLU
[1]; agonist 3.05176 nM
  RLU: 5.00E+03 RLU and 2.56E+03 RLU and 2.61E+03 RLU
[1]; agonist 48.8281 nM
  RLU: 1.58E+04 RLU and 1.61E+04 RLU and 1.60E+04 RLU
[1]; agonist 195.312 nM
  RLU: 2.98E+05 RLU and 2.86E+05 RLU and 2.15E+05 RLU
[1]; agonist 781.25 nM
  RLU: 3.60E+06 RLU and 4.20E+06 RLU and 3.87E+06 RLU
[1]; agonist 3125 nM
  RLU: 1.30E+07 RLU and 1.41E+07 RLU and 1.40E+07 RLU
[1]; agonist 12500 nM
  RLU: 1.88E+07 RLU and 2.11E+07 RLU and 2.10E+07 RLU
[1]; agonist 50000 nM
  RLU: 1.88E+07 RLU and 1.96E+07 RLU and 1.89E+07 RLU
[1]; saturating autoinducer, HCD, vs untreated ΔcqsA ΔluxS
  increase in light production: 100,000 fold
CqsS C170Y
  Qrr4-GFP/OD600: 23520280 and 22034610 and 28130220
CqsS F162A
  response of CqsS variant to CAI-1: do not respond
CqsS; Agonist 0.0119209 nM
  Light production: 12889 RLU and 8888.9 RLU and 6804.1 RLU
CqsS; Agonist 0.0476837 nM
  Light production: 14371 RLU and 11556 RLU and 14048 RLU
CqsS; Agonist 0.190735 nM
  Light production: 19162 RLU and 15751 RLU and 14725 RLU
CqsS; Agonist 0.762939 nM
  Light production: 27416 RLU and 24171 RLU and 21376 RLU
CqsS; Agonist 3.05176 nM
  Light production: 42278 RLU and 41455 RLU and 42909 RLU
CqsS; Agonist 12.207 nM
  Light production: 141302 RLU and 122637 RLU and 126432 RLU
CqsS; Agonist 48.8281 nM
  Light production: 2056727 RLU and 1989392 RLU and 2067742 RLU
CqsS; Agonist 195.312 nM
  Light production: 21777960 RLU and 20597350 RLU and 20387370 RLU
CqsS; Agonist 781.25 nM
  Light production: 68306990 RLU and 63315740 RLU and 60445960 RLU
CqsS; Agonist 3125 nM
  Light production: 107684000 RLU and 96526460 RLU and 89440220 RLU
CqsS; Agonist 12500 nM
  Light production: 110460000 RLU and 105858400 RLU and 100769600 RLU
CqsS; Agonist 50000 nM
  Light production: 108923600 RLU and 92244980 RLU and 92565550 RLU
CqsS; agonist 0.0119209 nM
  RLU: 6.03E+03 RLU and 5.88E+03 RLU and 4.06E+03 RLU
CqsS; agonist 0.190735 nM
  RLU: 1.26E+04 RLU and 1.57E+04 RLU and 1.42E+04 RLU
CqsS; agonist 0.762939 nM
  RLU: 2.01E+04 RLU and 2.32E+04 RLU and 2.34E+04 RLU
CqsS; agonist 3.05176 nM
  RLU: 2.95E+04 RLU and 3.11E+04 RLU and 2.71E+04 RLU
CqsS; agonist 12.207 nM
  RLU: 3.67E+04 RLU and 5.35E+04 RLU and 5.22E+04 RLU
CqsS; agonist 48.8281 nM
  RLU: 1.20E+05 RLU and 1.71E+05 RLU and 1.56E+05 RLU
CqsS; agonist 195.312 nM
  RLU: 4.96E+06 RLU and 5.24E+06 RLU and 3.77E+06 RLU
CqsS; agonist 781.25 nM
  RLU: 5.10E+07 RLU and 6.40E+07 RLU and 5.48E+07 RLU
CqsS; agonist 3125 nM
  RLU: 1.12E+08 RLU and 1.35E+08 RLU and 1.31E+08 RLU
CqsS; agonist 12500 nM
  RLU: 1.34E+08 RLU and 1.62E+08 RLU and 1.58E+08 RLU
CqsS; agonist 50000 nM
  RLU: 1.28E+08 RLU and 1.53E+08 RLU and 1.57E+08 RLU
